Assay [1] has as its target complex I (NADH-ubiquinone oxidoreductase). The assay is classed as biochemical.
Assay [2] has as its target complex III (electron transport chain). The assay is classed as biochemical.

For the compound `Cc1ccc(Sc2cccc3[nH]c4nc(N)nc(N)c4c23)cc1` [AG311], the Ki stood at 0.84 µM in assay [1] and 32 µM in assay [2].

Values taken from paper PMC5318233 (Cancer letters, 2016).
